Data on 13 molecules can be found in patent publication US20240415819A1, “MACROCYCLIC COMPOUNDS AS PROTEASOME SUBUNIT BETA TYPE-5 INHIBITORS” (Lead Discovery Center GmbH, priority 2021, published 2024).

pIC50: −log10 of the molar value. Some results are limits rather than exact numbers.

Assay [1] deals with T1, β5 subunit of the human constitutive proteasome (CPS) (Homo sapiens, UniProt P28074).
T1 construct: purchased Boston Biochem E-360
The assay is described as follows: β5 inhibition assay, human constitutive proteasome (Suc-LLVY-AMC). It is filed as biochemical. The following applies: IC50 class, Suc-LLVY-AMC substrate. On the procedure:
The enzymatic activity of the β5 subunit of the human constitutive proteasome (CPS) is analyzed. In another assay, which differs from the assay of the human constitutive proteasome only in using the human immunoproteasome (IPS) the enzymatic activity of the β5 subunit of the human immunoproteasome (IPS) is analyzed. […] Inhibition is indicated as IC50 [nM] (“-”=not measured).

Assay [2] concerns MM1 S (B lymphoblast cell line). In words: 48 hr CTG viability assay, MM1S. It is filed as cell-based. The following applies: Homo sapiens, 48 hr CTG, read-out: MM1S IC50. The method, then:
(§1) A viability assay was conducted for 48 hours to evaluate the inhibition of cancer cell growth by proteasome inhibitors. Briefly, the candidate cell line was plated with a 96-well plate following density of cells, respectively. 6×10^3 Cells/well for A2780 (human ovarian cancer cell line) and MDA-MB-468 (breast carcinoma), 8×10^3 Cells/well for Hs746T (human gastric carcinoma cell line), 1.1×10^4 Cells/well for MM1 S and RPMI 8226 (multiple myeloma). After 24 hours, the cells were treated with various concentrations of the compound (ranging from 0.0015 uM to 10 uM). […] After 48 hours of incubation at 37° C., 5% CO2 incubator, cells were analyzed for viability using the CellTiter-Glo Luminescent Cell Viability assay (Promega, Cat #G7570). All viability assays were performed in duplicate and Luminescence was read using an Envision (Perkin Elmer, USA). Data were analyzed using XLfit software. […] (human gastric carcinoma cell line), MM1 S (B lymphoblast cell line), and RPMI 8226 (B lymphocyte cell line, multiple myeloma). Inhibition is indicated as IC50 [nM] (“-”=not measured).

Assay [3] concerns RPMI 8226 (B lymphocyte cell line, multiple myeloma). The assay is described as follows: 48 hr CTG viability assay, RPMI 8226. It is filed as cell-based. To be noted: Homo sapiens, RPMI-8226; 48 hr CTG; read-out: RPMI-8226 IC50. The method, then: as §1
Assay [4] concerns the target T2, β5 subunit of the human immunoproteasome (IPS) (Homo sapiens, UniProt P28062).
T2 construct: purchased Boston Biochem E-370
The assay is described as follows: β5 inhibition assay, human immunoproteasome (Suc-LLVY-AMC). It is filed as biochemical. To be noted: IC50 class, Suc-LLVY-AMC substrate. In a few lines:
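β5 activity is read as liberated AMC fluorescence (355/460 nm) after 4 h dark reaction at RT with 22.6 μM Suc-LLVY-AMC, stopped by 1 μM bortezomib. Beforehand, 1 nM human IPS and compound sat 10 min at RT in HEPES pH 7.5 buffer containing NaCl, 0.02% SDS and DTT.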

Assay [5] deals with Hs 746T (human gastric carcinoma cell line). The assay is described as follows: 48 hr CTG viability assay, Hs 746T. It is filed as cell-based. To be noted: Hs746T, 48 hr CTG, read-out: Hs 746T IC50. The method, then:
as §1

In assay [6] the test system is A549 (human lung carcinoma cell line). In words: Glo assay of A549 cells (Table 3; ProteasomeGlo plating scheme). It is filed as cell-based. The following applies: Homo sapiens; A549 cells; read-out: PGLo A549. Put shortly: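 Luminescent read-out of cellular chymotrypsin-like proteasome activity: cells exposed to compound 105 min at 37° C., 5% CO2, then given Suc-LLVY-Glo reagent, shaken 2-5 min and kept dark 10-15 min before reading. Values are IC50 [nM].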

Take `CCN1CCN(C(=O)N[C@H]2CC(=O)N3CCCC(CCOc4ccc(C)c(c4)CNC(=O)[C@H](CCc4ccccc4)NC2=O)C3)CC1` (stereo partly drawn) [Compound 688, 4-ethyl-N-((9S,12S)-5^4-methyl-8,11,14-trioxo-9-phenethyl-4-oxa-7,10-diaza-1(3,1)-piperidina-5(1,3)-benzenacyclotetradecaphane-12-yl)piperazine-1-carboxamide]: the pIC50 in assay [1], in assay [2], in assay [3], in assay [4], in assay [5] and in assay [6] was over 7.00 throughout.
For the molecule `Cc1ccc2cc1CNC(=O)[C@H](CCc1ccccc1)NC(=O)[C@@H](NC(=O)C(C)(C)CO)CCC(=O)NCCCCO2` [Compound 726, 3-hydroxy-2,2-dimethyl-N-((11S,14S)-1^4_ methyl-8,12,15-trioxo-1^4-phenethyl-2-oxa-7,13,16-triaza-1(1,3)-benzenacycloheptadecaphane-11-yl)propanamide], the pIC50 in assay [1] is over 7.00; in assay [2], 6.30 to 7.00; in assay [3], 6.30 to 7.00; in assay [4], over 7.00; in assay [5], 6.00 to 6.30; in assay [6] it was 6.30 to 7.00.
In the case of `Cc1ccc2cc1CNC(=O)[C@H](CCc1ccccc1)NC(=O)[C@@H](NC(=O)CCNCc1ccc(N3CCN(Cc4ccccc4)CC3)cc1)CC(=O)N1CCCC(CCO2)C1` (stereo partly drawn) [Compound 699, 3-((4-(4-benzylpiperazin-1-yl)benzyl)amino)-N-((9S,12S)-5^4-methyl-8,11,14-trioxo-9-phenethyl-4-oxa-7,10-diaza-1(3,1)-piperidina-5(1,3)-benzenacyclotetradecaphane-12-yl)propanamide], the pIC50 in assay [1], in assay [2], in assay [3], in assay [4], in assay [5] and in assay [6] was over 7.00 each time.
On to `Cc1ccc2cc1CNC(=O)[C@H](CCc1ccccc1)NC(=O)[C@@H](NC(=O)N1CC(C)(C)c3cc(N)ccc31)CC(=O)N1CCCC(CCO2)C1` (stereo partly drawn) [Compound 666, 5-amino-3,3-dimethyl-N-((9S,12S)-5^4-methyl-8,11,14-trioxo-9-phenethyl-4-oxa-7,10-diaza-1(3,1)-piperidina-5(1,3)-benzenacyclotetradecaphane-12-yl)indoline-1-carboxamide], for which the pIC50 in assay [1], in assay [2], in assay [3], in assay [4], in assay [5] and in assay [6] was over 7.00 throughout.
Take `CC(=O)N[C@H]1CC(=O)N2CCCC(CCOc3ccc(C)c(c3)CNC(=O)[C@H](C3Cc4ccccc4C3)NC1=O)C2` (stereo partly drawn) [Compound 685, N-((9S,12S)-9-(2,3-dihydro-1H-inden-2-yl)-5^4-methyl-8,11,14-trioxo-4-oxa-7,10-diaza-1(3,1)-piperidina-5(1,3)-benzenacyclotetradecaphane-12-yl)acetamide]: the pIC50 in assay [1], in assay [2], in assay [3], in assay [4], in assay [5] and in assay [6] was over 7.00 each time.
As for `Cc1ccc2cc1CNC(=O)[C@H](CCc1ccccc1)NC(=O)[C@@H](NC(=O)CCNCCC1CC1)CC(=O)N1CCCC(CCO2)C1` (stereo partly drawn) [Compound 679, 3-((2-cyclopropylethyl)amino)-N-((9S,12S)-5^4-methyl-8,11,14-trioxo-9-phenethyl-4-oxa-7,10-diaza-1(3,1)-piperidina-5(1,3)-benzenacyclotetradecaphane-12-yl)propanamide], the pIC50 in assay [1], in assay [2], in assay [3], in assay [4], in assay [5] and in assay [6] was over 7.00 in each case.
As to `CC(C)(CO)C(=O)N[C@H]1CC(=O)N2CCCC(CCOc3ccc(F)c(c3)CNC(=O)[C@H](CCc3ccccc3)NC1=O)C2` (stereo partly drawn) [Compound 684, N-((9S,12S)-5^4-fluoro-8,11,14-trioxo-9-phenethyl-4-oxa-7,10-diaza-1(3,1)-piperidina-5(1,3)-benzenacyclotetradecaphane-12-yl)-3-hydroxy-2,2-dimethylpropanamide], the pIC50 in assay [1], in assay [2], in assay [3], in assay [4], in assay [5] and in assay [6] was over 7.00 in each case.
Take `Cc1ccc2cc1CNC(=O)[C@H](CCc1ccccc1)NC(=O)[C@@H](NC(=O)C1CC3(CCC3)C1)CC(=O)N1CCCC(CCO2)C1` (stereo partly drawn) [Compound 631, N-((9S,12S)-5^4-methyl-8,11,14-trioxo-9-phenethyl-4-oxa-7,10-diaza-1(3,1)-piperidina-5(1,3)-benzenacyclotetradecaphane-12-yl)spiro[3.3]heptane-2-carboxamide]: the pIC50 in assay [1], in assay [2], in assay [3], in assay [4], in assay [5] and in assay [6] was over 7.00 in each case.
For `Cc1ccc2cc1CNC(=O)[C@H](CCc1ccccc1)NC(=O)[C@@H](NC(=O)CCN1CCC3(CCCC3)C1)CC(=O)N1CCCC(CCO2)C1` (stereo partly drawn) [Compound 652, N-((9S,12S)-5^4-methyl-8,11,14-trioxo-9-phenethyl-4-oxa-7,10-diaza-1(3,1)-piperidina-5(1,3)-benzenacyclotetradecaphane-12-yl)-3-(2-azaspiro[4.4]nonan-2-yl)propanamide], the pIC50 in assay [1], in assay [2], in assay [3], in assay [4], in assay [5] and in assay [6] was over 7.00 throughout.
For `Cc1ccc2cc1CNC(=O)[C@H](CCc1ccccc1)NC(=O)[C@@H](NC(=O)N1CC(O)C1)CC(=O)N1CCCC(CCO2)C1` (stereo partly drawn) [Compound 691, 3-hydroxy-N-((9S,12S)-5^4-methyl-8,11,14-trioxo-9-phenethyl-4-oxa-7,10-diaza-1(3,1)-piperidina-5(1,3)-benzenacyclotetradecaphane-12-yl)azetidine-1-carboxamide], the pIC50 in assay [1], in assay [2], in assay [3], in assay [4], in assay [5] and in assay [6] was over 7.00 throughout.
With `Cc1ccc2cc1CNC(=O)[C@H](CCc1ccccc1)NC(=O)[C@@H](NC(=O)CCN1CCC3(COC3)C1)CC(=O)N1CCCC(CCO2)C1` (stereo partly drawn) [Compound 648, N-((9S,12S)-5^4-methyl-8,11,14-trioxo-9-phenethyl-4-oxa-7,10-diaza-1(3,1)-piperidina-5(1,3)-benzenacyclotetradecaphane-12-yl)-3-(2-oxa-6-azaspiro[3.4]octan-6-yl)propanamide], the pIC50 in assay [1], in assay [2], in assay [3], in assay [4], in assay [5] and in assay [6] was over 7.00 each time.
Consider `Cc1ccc2cc1CNC(=O)[C@H](CCc1ccncc1)NC(=O)[C@@H](NC(=O)C1(F)CCNCC1)CC(=O)N1CCCC(CCO2)C1` (stereo partly drawn) [Compound 729, 4-fluoro-N-((12S)-5^4-methyl-8,11,14-trioxo-9-(2-(pyridin-4-yl)ethyl)-4-oxa-7,10-diaza-1(3,1)-piperidina-5(1,3)-benzenacyclotetradecaphane-12-yl)piperidine-4-carboxamide], for which the pIC50 in assay [1] was over 7.00; in assay [2] it was 6.30 to 7.00; in assay [3], 6.30 to 7.00; in assay [4] it was over 7.00; in assay [5], 6.30 to 7.00; in assay [6], over 7.00.
Consider `Cc1ccc2cc1CNC(=O)[C@H](CCc1ccccc1)NC(=O)[C@@H](NC1CCC1)CC(=O)N1CCCC(CCO2)C1` (stereo partly drawn) [Compound 717, (9S,12S)-12-(cyclobutylamino)-5^4-methyl-9-phenethyl-4-oxa-7,10-diaza-1(3,1)-piperidina-5(1,3)-benzenacyclotetradecaphane-8,11,14-trione], for which the pIC50 in assay [1] was over 7.00; in assay [2], 6.30 to 7.00; in assay [3] it was 6.30 to 7.00; in assay [4], over 7.00; in assay [5], 6.30 to 7.00; in assay [6], over 7.00.
